Columns and labels:
Assay type in all cases: cell-based, human
H9 hESCs = assay: Activin A/BMP4 directed cardiac differentiation with GSK3 inhibitor pretreatment, cTnT flow cytometry; conditions: GSK3 inhibitor (1 μM) 3 days prior to Activin A and BMP4; day 15; average
Method: Cardiac directed differentiation using Activin A and BMP4: hPS cells maintained on Matrigel® in mTeSR1 were dissociated into single cells with Accutase (Invitrogen) at 37° C. for 5 min and then seeded onto a Matrigel®-coated cell culture dish at 100,000 cell/cm^2 in mTeSR1 supplemented with 5 μM ROCK inhibitor (Y-27632, Stemgent) (day −5). Cells were cultured in mTeSR1, changed daily. At day 0, cells were treated with 100 ng/ml Activin A (R&D) in RPMI/B27-insulin. After 24 hr, the medium was changed to RPMI/B27-insulin supplemented with 5 ng/ml BMP4 (R&D) for another 4 days. At day 5, the medium was changed with RPMI/B27-insulin. At day 7 the cells were transferred to RPMI/B27, and medim changed every 3 days. When using GSK3 inhibitors to stimulate differentiation, cells were cultured in mTeSR1 containing BIO or CHIR99021 from day −3 to day 0.
Flow Cytometry: Cells were dissociated into single cells and then fixed with 1% paraformaldehyde for 20 min at room temperature and stained with primary and secondary antibodies in PBS plus 0.1% Triton X-100 and 0.5% BSA. For the cell proliferation assay, a 17-hour pulse of BrdU was performed to identify dividing cardiomyocytes (Zhang et al., Circ. Res. 104, e30-41 (2009)). Data were collected on a FACSCaliber flow cytometer (Beckton Dickinson) and analyzed using FlowJo.
Undifferentiated H9 hESCs were cultured in the presence of 0-8 μM CH for three days prior to EB formation. EBs were cultured in suspension for 4 days before transferring to 0.1% gelatin coated plates. […] The inventors also applied the GSK3 inhibitors CH and BIO to undifferentiated H9 hESCs three days prior to directed differentiation to cardiomyocytes via Activin A and BMP4.

[1] = test system: Smad1/5 and Smad2 phosphorylation in 19-9-11 ishcat cells; assay: Smad1/5 and Smad2 phosphorylation, western blot; conditions: 12 μM CH treatment
Method: Western Blot Analysis: Cells were lysed in M-PER Mammalian Protein Extraction Reagent (Pierce) in the presence of Halt Protease and Phosphatase Inhibitor Cocktail (Pierce). Proteins were separated by 10% Tris-Glycine SDS/PAGE (Invitrogen) under denaturing conditions and transferred to a nitrocellulose membrane. After blocking with 5% milk in TBST, the membrane was incubated with primary antibody overnight at 4° C. The membrane was then washed, incubated with an anti-mouse/rabbit peroxidase-conjugated secondary antibody (1:1000, Cell Signaling) at room temperature for 1 hr, and developed by SuperSignal chemiluminescence (Pierce).
To determine whether canonical Wnt signaling requires TGFβ superfamily signaling to induce cardiogenesis, the inventors quantified cTnT+ cell generation in 19-9-11 ishcat-2 cells when Activin A and BMP4 signaling antagonists were presented during the first 24 hr of cardiomyocyte induction with 12 μM CH. All samples were treated with dox at 48 hours. […] To further investigate the role of TGFβ superfamily signaling in Wnt pathway-mediated cardiogenesis the inventors assessed Smad1/5 and Smad2 phosphorylation, downstream of BMP4 and Activin A signaling respectively. As expected, substantial Smad1/5 and Smad2 phosphorylation was detected in cells that had been treated with Activin A and BMP4 (FIGS. 9B and 10A).

[2] = test system: TCF/LEF promoter activity in H9-7TGP cells; assay: 7TGP TCF/LEF promoter-reporter (GFP) assay after CH treatment
Text: (§1) In order to probe the activation of canonical Wnt/β-catenin signaling during hPS cell specification to cardiomyocytes, the inventors generated a series of promoter-reporter cell lines in H1 and H9 hESC, and 19-9-11 human iPSC lines. These reporter lines, integrated with a lentiviral 7TGP vector, express GFP under control of a consensus TCF/LEF binding sequence promoter which reports β-catenin activation (FIG. 2A) (Fuerer and Nusse, PLoS One 5:e9370 (2010)). […] Approximately 50% of H9-7TGP cells expressed GFP at 4 days post-addition of 15 μM CH.

H9-7TGP cells = assay: Immunofluorescent analysis of CH-induced H9-7TGP GFP+ cells; conditions: 12 μM CHIR99021 in mTeSR1 for 4 days
Method: as §1, with “Immunostaining: Cells were fixed with 4% paraformaldehyde for 15 min at room temperature and then stained with primary and secondary antibodies in PBS plus 0.4% Triton X-100 and 5% non-fat dry milk (Bio-Rad). Nuclei were stained with Gold Anti-fade Reagent with DAPI (Invitrogen). An epifluorescence microscope (Leica DM IRB) with a QImaging® Retiga 4000R camera was used for imaging analysis. In” for “In”

## Cc1c[nH]c(-c2cnc(NCCNc3ccc(C#N)cn3)nc2-c2ccc(Cl)cc2Cl)n1 [CH]
H9 hESCs
  cTNT-labeled cells: 50%
[1]
  Smad1/5 and Smad2 activation: levels comparable to those induced by Activin A and BMP4
[2]; 15 μM CH, 4 days post-addition
  H9-7TGP cells expressing GFP: Approximately 50%
[2]; H9-7TGP reporter line, CH in mTeSR1 for 4 days
  TCF/LEF promoter activity: activated TCF/LEF promoter activity in a CH concentration-dependent manner
H9-7TGP cells
  Oct4, Isl1 and Nkx2.5 expression in CH-induced GFP+ cells: did not express Oct4, but did express Isl1 and Nkx2.5

— patent publication US9663764B2, “Generation of cardiomyocytes from human pluripotent stem cells” (Wisconsin Alumni Research Foundation, priority 2011, dated 2017)
